Test system: SW480
Experiment: drug sensitivity score (DSS, integrated dose-response area); higher = more sensitive (stronger viability reduction); extreme values may be limits of the assay
Summary of the method: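 SW480 cells stably carrying doxycycline-inducible control or SND1-targeting shRNA were induced with 0.1 µg/mL doxycycline for 7 days. They were then plated at 1000 cells per well in 384-well plates holding 525 commercially available small-molecule inhibitors at five concentrations. Viability was read with CellTiter-Glo after 72 h. The drug sensitivity score integrates the area under a fitted non-linear dose–response model.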

[1] = shRNA: SND1 shRNA1 (SND1 silenced)
[2] = shRNA: SND1 shRNA2 (SND1 silenced)
[3] = shRNA: control shRNA (non-targeting)

Structure (SMILES) | drug sensitivity score [1] [DSS] | drug sensitivity score [2] [DSS] | drug sensitivity score [3] [DSS]
CN1CCN(c2ccc3nc(-c4c(N)c5c(F)cccc5[nH]c4=O)[nH]c3c2)CC1 [Dovitinib] | 0.1 | 0 | 0
COc1cccc2c1C(=O)c1c(O)c3c(c(O)c1C2=O)C[C@@](O)(C(=O)CO)C[C@@H]3O[C@H]1C[C@H](N)[C@H](O)[C@H](C)O1 [Doxorubicin] | 4.5 | 4.1 | 4.1
C[C@H](Nc1ncnc2nc[nH]c12)c1cc2cccc(Cl)c2c(=O)n1-c1ccccc1 [Duvelisib] | 0.6 | 3 | 5.5
Cc1cc(Nc2cc(N3CCN(C)CC3)nc(/C=C/c3ccccc3)n2)n[nH]1 [ENMD-2076] | 11.9 | 10.7 | 12
Cc1cc(C)c(CNC(=O)c2cc(-c3ccc(CN4CCOCC4)cc3)cc3c2cnn3C2CCCC2)c(=O)[nH]1 [EPZ-5687] | 0 | 0 | 0
COC(=O)N[C@@H](C)CNc1nccc(-c2cn(C(C)C)nc2-c2cc(Cl)cc(NS(C)(=O)=O)c2F)n1 [Encorafenib] | 0 |  | 1.6
Nc1ccccc1NC(=O)c1ccc(CNC(=O)OCc2cccnc2)cc1 [Entinostat] | 5.3 | 2.6 | 2.8
c1cn2cc(-c3ccc4cn[nH]c4c3)nc(Nc3ccc(N4CCOCC4)cc3)c2n1 [Entospletinib] | 0 | 0 | 0
CNC(=O)c1ccc(N2C(=S)N(c3ccc(C#N)c(C(F)(F)F)c3)C(=O)C2(C)C)cc1F [Enzalutamide] | 0 | 1.3 | 0
Cn1cc(C2=C(c3cn(C4CCN(Cc5ccccn5)CC4)c4ccccc34)C(=O)NC2=O)c2ccccc21 [Enzastaurin] | 4.1 | 0 | 1.4
NS(=O)(=O)NCCNc1nonc1/C(=N/O)Nc1ccc(F)c(Br)c1 [Epacadostat] | 0 | 1.5 | 0.1
C#Cc1cccc(Nc2ncnc3cc(OCCOC)c(OCCOC)cc23)c1 [Erlotinib] | 2.6 | 2.5 | 2.4
C[C@]12CC[C@@H]3c4ccc(OC(=O)N(CCCl)CCCl)cc4CC[C@H]3[C@@H]1CC[C@@H]2O [Estramustine] | 0 |  | 0
COc1cc([C@@H]2c3cc4c(cc3[C@@H](O[C@@H]3O[C@@H]5CO[C@@H](C)O[C@H]5[C@H](O)[C@H]3O)[C@H]3COC(=O)[C@H]23)OCO4)cc(OC)c1O [Etoposide] | 3.1 | 0.4 | 3.3
CO[C@H]1C[C@@H]2CC[C@@H](C)[C@@](O)(O2)C(=O)C(=O)N2CCCC[C@H]2C(=O)O[C@H]([C@H](C)C[C@@H]2CC[C@@H](OCCO)[C@H](OC)C2)CC(=O)[C@H](C)/C=C(\C)[C@@H](O)[C@@H](OC)C(=O)[C@H](C)C[C@H](C)/C=C/C=C/C=C/1C [Everolimus] | 7.5 |  | 0.4
C=C1C[C@@H]2[C@H](CC[C@]3(C)C(=O)CC[C@@H]23)[C@@]2(C)C=CC(=O)C=C12 [Exemestane] | 3.1 | 3 | 4.6
Cc1nc(C(=O)NCC(=O)O)c(O)c2ccc(Oc3ccccc3)cc12 [FG-4592] | 4.8 | 1 | 2.5
CCn1c(=O)c(-c2ccc(Cl)cc2Cl)cc2cnc(Nc3ccc(N4CCNCC4)c(F)c3)nc21 [FRAX486] | 5 | 4.8 | 8.5
O=S(=O)(c1cccc2cnccc12)N1CCCNCC1 [Fasudil] | 3.1 | 3 | 6
